Data: US10662218B2, “Analogs of celastrol” (ERX Pharmaceuticals, Inc., priority 2015, dated 2020)
Values after ≈ are worked out from the molar mass of the structure shown.

Assay: Compound solubility in PBS (pH 7.4), LC-MS/MS
Method: • Test concentration: 100 μM (1% of DMSO) • Test systems: PBS (pH 7.4) • Incubation condition: shaken (1000 rpm) for 1 h at room temperature • Sample size: Duplicates (n=2) • Bioanalytical method: LC-MS/MS

[1] = PBS (pH 7.4), pH 7.4, aqueous buffer, kinetic from dmso stock, Solubility (μM) Mean, Table 6-B, test concentration 100 μM (1% of DMSO), shaken (1000 rpm) 1 h at room temperature, n = 2
[2] = PBS (pH 7.4), pH 7.4, aqueous buffer, kinetic from dmso stock, Solubility (μM), Table 6-D
[3] = PBS (pH 7.4), pH 7.4, aqueous buffer, kinetic from dmso stock, Solubility (μM) Mean, Table 6-C, test concentration 100 μM (1% of DMSO), shaken (1000 rpm) 1 h at room temperature, n = 2

| Structure (SMILES) | solubility at 1 h [1] | solubility at 1 h [2] | solubility at 1 h [3] | solubility at 1 h (pH 7.4, aqueous buffer, kinetic from dmso stock, Solubility (μM) Mean, Table 6-B; PBS (pH 7.4), test concentration 100 μM (1% of DMSO), shaken (1000 rpm) 1 h at room temperature, n = 2) | solubility at 1 h (pH 7.4, aqueous buffer, kinetic from dmso stock, Solubility (μM) Mean, Table 6-C; PBS (pH 7.4), test concentration 100 μM (1% of DMSO), shaken (1000 rpm) 1 h at room temperature, n = 2) | solubility at 1 h (pH 7.4, aqueous buffer, kinetic from dmso stock, Solubility (μM), Table 6-D; PBS (pH 7.4)) |
| --- | --- | --- | --- | --- | --- | --- |
| CC(=O)Oc1cc2c(c(C)c1OC(C)=O)C(SC(C)C)C=C1[C@@]2(C)CC[C@@]2(C)[C@@H]3C[C@](C)(CN(C)C)CC[C@]3(C)CC[C@]12C (stereo partly shown) [ERX1115] | 0.56 µM (≈ 0.349 µg/mL) | 0.557 µM (≈ 0.348 µg/mL) | – | – | – | – |
| CC1=C(O)C(=O)C=C2C1=CC=C1[C@@]2(C)CC[C@@]2(C)[C@@H]3C[C@](C)(CN4CCOCC4)CC[C@]3(C)CC[C@]12C [ERX1116] | 0.47 µM (≈ 0.238 µg/mL) | 0.47 µM (≈ 0.238 µg/mL) | – | – | – | – |
| CC1=C(O)C(=O)C=C2C1=CC=C1[C@@]2(C)CC[C@@]2(C)[C@@H]3C[C@](C)(CN4CCN(C)CC4)CC[C@]3(C)CC[C@]12C [ERX1117] | 0.91 µM (≈ 0.472 µg/mL) | 0.914 µM (≈ 0.474 µg/mL) | – | – | – | – |
| CC(=O)N[C@]1(C)CC[C@]2(C)CC[C@]3(C)C4=CC(SC(=O)c5ccccc5)c5c(cc(OC(C)=O)c(OC(C)=O)c5C)[C@]4(C)CC[C@@]3(C)[C@@H]2C1 (stereo partly shown) [ERX1173] | – | – | 1.74 µM (≈ 1.19 µg/mL) | – | – | – |
| CC(=O)N1CCN(c2ccc(OCC3COC(Cn4ccnc4)(c4ccc(Cl)cc4Cl)O3)cc2)CC1 (stereo not shown) [Ketoconazole] | 35.7 µM (≈ 19 µg/mL) | 35.7 µM (≈ 19 µg/mL) | 35.2 µM (≈ 18.7 µg/mL) | – | – | – |
| CC(C)NCC(O)COc1cccc2ccccc12 (stereo not shown) [Propranolol] | – | – | – | 97.5 µM (≈ 25.3 µg/mL) | > 100 µM | 97.5 µM (≈ 25.3 µg/mL) |

Further lines, results first:

| solubility at 1 h [1] | solubility at 1 h [2] | solubility at 1 h [3] | solubility at 1 h (pH 7.4, aqueous buffer, kinetic from dmso stock, Solubility (μM) Mean, Table 6-B; PBS (pH 7.4), test concentration 100 μM (1% of DMSO), shaken (1000 rpm) 1 h at room temperature, n = 2) | solubility at 1 h (pH 7.4, aqueous buffer, kinetic from dmso stock, Solubility (μM) Mean, Table 6-C; PBS (pH 7.4), test concentration 100 μM (1% of DMSO), shaken (1000 rpm) 1 h at room temperature, n = 2) | solubility at 1 h (pH 7.4, aqueous buffer, kinetic from dmso stock, Solubility (μM), Table 6-D; PBS (pH 7.4)) | Structure (SMILES) |
| --- | --- | --- | --- | --- | --- | --- |
| 1.55 µM (≈ 0.762 µg/mL) | 1.55 µM (≈ 0.762 µg/mL) | – | – | – | – | CCCOC1=C(C)C2=CC=C3[C@@](C)(CC[C@@]4(C)[C@@H]5C[C@](C)(C(N)=O)CC[C@]5(C)CC[C@]34C)C2=CC1=O [ERX1121] |
| 1.04 µM (≈ 0.509 µg/mL) | 1.03 µM (≈ 0.507 µg/mL) | – | – | – | – | C=CCOC1=C(C)C2=CC=C3[C@@](C)(CC[C@@]4(C)[C@@H]5C[C@](C)(C(N)=O)CC[C@]5(C)CC[C@]34C)C2=CC1=O [ERX1124] |
| 4.03 µM (≈ 2.01 µg/mL) | 4.03 µM (≈ 2.01 µg/mL) | – | – | – | – | CC1=C(O)C(=O)C=C2C1=CC=C1[C@@]2(C)CC[C@@]2(C)[C@@H]3C[C@](C)(NS(C)(=O)=O)CC[C@]3(C)CC[C@]12C [ERX1175] |
